From patent publication US10251865B2, “Method of activating regulatory T cells with alpha-2B adrenergic receptor agonists” (Allergan, Inc., priority 2010, dated 2019)

How the values were obtained:
[1] = system: IL-2; assay: IL-2 levels in tissues from SNL rats (Luminex cytokine analysis); assay type: in vivo, rat; details: for IL-2 level, Ipsilateral DRGL4 / IL-2 level, Ipsilateral DRGL5, L6 / IL-2 level, Ipsilateral spinal cord / IL-2 level, Serum: 2.4 mg/kg/day via osmotic minipump, mean ± SEM
Method: (§1) The SNL (or Chung) Model in the rat is an accepted standard animal model of neuropathic pain and is thought to mimic the human causalgia condition with respect to symptoms (guarding behavior, mechanical allodynia) and alleviation by pharmacological agents. […] The SNL Model is performed by tightly ligating the L-5 and L-6 spinal nerves, which produces tactile allodynia or sensitivity to light touch as described (Kim and Chung, 1992). Male sprague-dawley rats (100-120 grams; Charles River, Wilmington, Mass.) were anesthetized through inhalation of an isoflurane/oxygen mix. The surgical site was shaved and prepared with betadine. An incision was made from the thoracic vertebra XIII toward down the sacrum. The muscle was separated from the spinal vertebra (left side) at the L4-S2 levels. The L6 vertebra was located and then the transverse process was carefully removed with a small rongeur to visually identify the L4-L6 spinal nerves. The L5 and L6 spinal nerves was isolated and tightly ligated with 6-0 silk thread. A complete homeostasis was confirmed and then the wound was sutured. The duration of the surgery was approximately 20 minutes. A small amount of antibiotic ointment was applied to the incised area and the animals were transferred to a plastic recovery cage under a regulated heat-temperature lamp. Animals were not given any topical or local anesthetics post-operatively because they will inhibit the development of the pain syndrome, which is the phenomenon to be studied.
Compound A was formulated in 50% DMSO (Sigma, St. Louis, Mo.). This solution was loaded into the osmotic minipumps (Model 1007D, Alzet Corp., Palo Alto, Calif.) set to deliver the drug at a rate of 0.5 ul/hr resulting in a final dose of 2.4 mg/kg/day. The vehicle for these studies is 50% DMSO administered via osmotic minipumps at a rate of 0.5 ul/hr/kg.
The levels of cytokines were measured with a sensitive, fluorescent multiplex immunobead assay (Luminex; Biosource-Invitrogen, Carlsbad, Calif.). 9 plex rat cytokine/chemokine (RCYTO-80K-09) panel from Millipore was used. Cytokine levels in samples were analyzed by using the corresponding Millipore cytokine Beadmate pairs. For the Luminex assay, a 96-well filter plate (Millipore) was pre-wetted with 25 μl of Beadlyte cytokine assay buffer. A vacuum manifold (Millipore, Billerica, Mass.) was used to aspirate the buffer from the wells. 25 μl of sample was placed in each well. The beads (25 μl) were pipetted into the wells. Standard curves for each cytokine were generated in duplicate by placing 25 μl of the appropriate dilution of standards purchased from Millipore. The plate was incubated overnight with gentle shaking in the dark at 4° C. Beads were washed with Beadlyte cytokine assay buffer (Millipore) and wash buffer was eliminated using a vacuum manifold. 25 μl of the appropriate biotin-conjugated secondary antibody (Millipore) was added to each well for 90 minutes at room temperature with gentle shaking. Beads were incubated with Beadlyte streptavidin-phycoerythrin (1:25 dilution in Beadlyte assay buffer) for 30 minutes at room temperature with gentle shaking. Beads were washed, resuspended in 125 μl of Beadlyte buffer, and analyzed by Luminex 100 instrument (Luminex Corporation, Austin, Tex.). The mean fluorescence intensities obtained from 50 beads per cytokine minimum were analyzed using Upstate Beadview software. Standard curves were generated (8 data points including a zero standard run in duplicate) using a four- or five-parametric logistic curve. R-squared values were between 0.99 and 1. Data are expressed in pg/ml or ng/ml values.

[2] = system: SNL Rat Model of Allodynic Neuropathic Pain; assay: Allodynia reversal (Von Frey) in the SNL Rat Model of Allodynic Neuropathic Pain; assay type: in vivo; details: SNL rats, 3 mg/kg BID SC alone
Method: as §1
The allodynia is quantitated in the animals having received the Chung surgery by stimulation with a series of 8 Von Frey hairs on the mid planter area of the surgical hind paw in the up-down manner as described in the literature (Dixon, 1980). Von Frey hairs are applied in an up-down manner depending on the response until the 50% threshold is established. The Von Frey hairs are applied to the plantar surface of the surgical paw with just enough force to bend them. A positive response is recorded if the paw is sharply withdrawn. Eight Von Frey hairs were used 3.61, 3.84, 4.08, 4.31, 4.56, 4.74, 4.93 and 5.18 yielding a gram force of 0.25-15 grams.
[formula] • Mean±SEM: • Mean=average of allodynia reversals • SEM=STDEV/SQ ROOT of n
Testing with compounds is done 2-3 weeks after surgery to establish stable allodynia. In all experimental animals, baseline measurements were taken prior to drug administration and then at 24 hours and 5-23 days post dosing with Alzet osmotic minipump. The investigator was blinded to the identity of the drug groups. The % allodynia reversal is calculated as: [(Postdrug threshold−Predrug threshold)/(15-Predrug threshold)]×100.
Compound B was formulated in 50% DMSO (dimethyl sulfoxide; Sigma, St. Louis, Mo.). This solution was dosed orally TID at a dose of 0.3 or 1 mg/kg. For dosing in the osmotic minipumps (Model 1007D, Alzet Corp., Palo Alto, Calif.) the compound was loaded onto the pumps set to deliver a final dose of either 1 or 3 mg/kg/day. The vehicle for these studies is 50% DMSO.
Compound C was formulated first in 100% DMSO (Sigma, St. Louis, Mo.), then diluted down in 30% DMSO for a 10 mg/ml solution; 15% DMSO for a 3 mg/ml solution and further dilutions were made in water. The compound was dosed orally TID at a dose of either 0.3 or 1 mg/kg for a total daily dose of 1 or 3 mg/kg/day, respectively.

[3] = system: SNL Rat Model of Allodynic Neuropathic Pain; details: background statement on the model, cited from earlier work
[4] = Table 3 study, mean % MPE ± SEM

## OCCNC(=S)NCc1cccc(Cl)c1F [Compound A]
[1]; 24 hours
  IL-2 level, Ipsilateral DRGL4: 101.63 ± 20.55 pg/mL
  IL-2 level, Ipsilateral DRGL5, L6: 211 ± 33.72 pg/mL
  IL-2 level, Ipsilateral spinal cord: 345 ± 19.34 pg/mL
  IL-2 level, Serum: 978 ± 77.13 pg/mL
[1]; 5 days
  IL-2 level, Ipsilateral DRGL4: 69.52 ± 9.42 pg/mL
  IL-2 level, Ipsilateral DRGL5, L6: 138.35 ± 22.59 pg/mL
  IL-2 level, Ipsilateral spinal cord: 351.75 ± 17.19 pg/mL
  IL-2 level, Serum: 380.25 ± 61.67 pg/mL
[1]; result in words
  spinal nerve ligation surgery-induced increase of IL-2 levels: attenuated

## C=CC[C@@H]1/C=C(\C)C[C@H](C)C[C@H](OC)[C@H]2O[C@@](O)(C(=O)C(=O)N3CCCC[C@H]3C(=O)O[C@H](/C(C)=C/[C@@H]3CC[C@@H](O)[C@H](OC)C3)[C@H](C)[C@@H](O)CC1=O)[C@H](C)C[C@@H]2OC [FK506, reference compound]
[2]; Table 2 study
  % Allodynia Reversal 24 hr post: −5.77 ± 3.43%
  % Allodynia Reversal 7 day post: −6.39 ± 4.85%
[2]; [4]
  % Allodynia Reversal 24 hr post: −0.53 ± 6.21%
  % Allodynia Reversal 23 day post: 2.01 ± 5.86%

## NCC1(CC(=O)O)CCCCC1 [Gabapentin]
[3]; 30 mg/kg p.o.
  alleviation of allodynia: 50%

## CN1CC[C@]23c4c5ccc(O)c4O[C@H]2[C@@H](O)C=C[C@H]3[C@H]1C5 [morphine]
[3]
  alleviation of tactile allodynia: does not alleviate
